Data reported in BindingDB's records for doi:10.1021/jm011053+ (Institut De Chimie Pharmaceutique Albert Lespagnol, 2002).
pKi: −log10 of the molar value.

Test: Inhibition of 2-[125I]iodomelatonin binding to Melatonin receptor 3 (MT3) of Syrian hamster brain membrane

Question: With `COc1ccc2[nH]cc(CCNC(C)=O)c2c1[N+](=O)[O-]` [N-(2-(5-methoxy-4-nitro-1H-indol-3-yl)ethyl)acetamide] as the compound, how does the pKi read?
Answer: 8.96

Question: With `COc1ccc2c(c1)c(CCNC(C)=O)cn2C` [N-[2-(5-Methoxy-1-methyl-1H-indol-3-yl)-ethyl]-acetamide] as the compound, how does the pKi read?
Answer: 8.55

Question: With `COc1ccc2c(c(CCNC(C)=O)cn2C)c1[N+](=O)[O-]` [N-[2-(5-Methoxy-1-methyl-4-nitro-1H-indol-3-yl)-ethyl]-acetamide] as the compound, how does the pKi read?
Answer: 9.51
